Test results as given in US12390534B2, “Branched degradable polyethylene glycol binder” (NOF CORPORATION, priority 2019, dated 2025).
Bridge positions count the residues as written; N and C are the ends. Ends that are not written are not given here.

Tested on: plasma calcium concentration
Assay: Evaluation of physiological activity of PEGylated salmon calcitonin (blood calcium concentration)
Assay type: in vivo, mouse
Design: dose or concentration left out as unconfirmed
Details: Balb/c mice, sCT dose, plasma at 1, 6, 24 hr, compared to PBS group, FIG. 16
Protocol: The method for evaluating the physiological activity of a degradable polyethylene glycol derivative-bonded bio-related substance is not particular limited. For example, when the bio-related substance is insulin, blood sugar concentration is measured, and when it is calcitonin, blood calcium concentration is measured, by periodically collecting blood from the animal that received administration and measuring the substance in the blood by using an appropriate analytical instrument, and the like, based on which the evaluation can be performed. Specifically, in the case of insulin, a glucose measurement kit is used to monitor a decrease in glucose concentration after administration and, in the case of calcitonin, a decrease in calcium concentration after administration is monitored using a calcium measurement kit, based on which the evaluation can be performed.
The physiological activities of 4 groups of sCT-E(FG-200ME)2 which is SCT to which degradable polyethylene glycol derivative with a molecular weight of 40,000 is bonded and methoxy PEG 40 kDa-sCT, in which non-degradable methoxy PEG 40 kDa is bonded, each of which is obtained in Example 9, unmodified sCT, and PBS were comparatively evaluated in animal experiments. […]

Unmodified sCT: salmon calcitonin (sCT) with the amino acid sequence CSNLSTCVLGKLSQELHKLQTYPRTNTGSGTP (SEQ ID NO: 1) (CSNLSTCVLGKLSQELHKLQTYPRTNTGSGTP-NH2; disulfide 1-7; ends not checked; listed as Oncorhynchus keta)
plasma calcium concentration after administration (in words): showed an increase in calcium concentration from 6 hr after administration
